Consider one molecule from EPA's ToxValDB 9.5 (doi:10.2903/j.efsa.2014.3913).

One data set concerns Rattus norvegicus. To be noted: acute; mortality.
In a further data set the test system is Oryctolagus sp. The note with it: reproduction developmental; organ weight.
The test system of the next data set is Bibionidae. To be noted: chronic/long-term; duration: 28 days.
The subject of another data set is Folsomia candida. To be noted: chronic/long-term.
The next data set concerns Chironomus tentans. The note with it: chronic/long-term; duration: 28 days.
For another data set, the system named is Apis mellifera. To be noted: acute, mortality.
Another data set concerns Colinus virginianus. The note with it: for LD50: acute, oral, mortality.
For a further data set, the system named is Daphnia magna. The note with it: chronic/long-term; duration: 21 days.
In the next data set the test system is Hypoaspis aculeifer. The note with it: chronic/long-term.
A further data set relates to Poephila guttata. To be noted: acute; oral; unspecified; mortality.
Where [1] appears, read: acute, duration: 96 hours, mortality.
[2] abbreviates: chronic/long-term, duration: 28 days.

Structures are written as SMILES.

For orientation: NOAEL means the highest dose or exposure tested at which no adverse effect was seen. Turning to `COC(=O)c1nc(-c2ccc(Cl)c(OC)c2F)cc(N)c1Cl` [Halauxifen-methyl], the LD50 in the data set on Rattus norvegicus was more than 5000 mg/kg; with Apis mellifera (dermal), more than 98.1 µg/piece; in the data set on Apis mellifera (oral, unspecified), more than 108 µg/piece; in the data set with Colinus virginianus (diet) it was more than 1330 mg/kg-day; in the data set with Colinus virginianus it was more than 2250 mg/kg; with Anas platyrhynchos (short-term, oral, feed, mortality), more than 2090 mg/kg-day. Further, the LD50 in the data set on Poephila guttata is more than 2250 mg/kg. The NOAEL with Oryctolagus sp. is 5.78 mg/kg-day; with Colinus virginianus (reproduction developmental, reproduction), 36.9 mg/kg-day; in the data set with Anas platyrhynchos (reproductive, reproduction) it was 160 mg/kg-day. In addition, the NOEC in the data set with Bibionidae came out at 1.26 mg/L; in the data set with Folsomia candida, 500 mg/kg; in the data set on Neomysis kadiakensis (setting [2]), 0.152 mg/L; in the data set on Chironomus tentans, 89.3 mg/kg; in the data set on Tagia sp. (chronic/long-term, duration: 8 weeks) it was 5 mg/kg; in the data set with Daphnia magna, 0.144 mg/L. Besides, the values for the NOEC with Hypoaspis aculeifer and with Cyprinodon variegatus (setting [2]) were 12.5 mg/kg and 0.0115 mg/L, respectively. In addition, the LC50 in the data set with Neomysis kadiakensis (setting [1]) is more than 1.3 µg/mL; with Tagia sp. (acute, duration: 14 days, mortality), more than 500 mg/kg; with Cyprinodon variegatus (setting [1]), more than 1.33 µg/mL.
